From patent publication US8802082B2, “Rhodamine derivatives for photodynamic diagnosis and treatment” (Université de Montreal, priority 1999, dated 2014)

Columns and labels:
K-562 cell line = experiment: In vitro phototoxicity, cell viability in the K-562 cell line procedure (argon ion laser 514.5 nm); assay type: cell-based
Experimental: To ascertain the photochemotherapeutic potential of 4, 5-dibromorhodamine 110 n-butyl ester hydrobromide (DBBE), in vitro phototoxicity was evaluated in the K-562 cell line procedure described. The cells were incubated with increasing concentrations of DBBE and the cell viability was measured at different time points following photodynamic therapy.
The photo toxicity in vitro of rhodamine B n-butyl ester (RBBE) was evaluated in the K-562 cell line procedure, in order to assess its photochemotherapeutic potential. Comparison was made to the induced phototoxicity of rhodamine 123 (RH123) and of rhodamine nB-butyl ester hydrochloride. Cell viability was evaluated 2 and 20 hours after photodynamic therapy. […] Rhodamine 123 has no effect on cell viability, even at exposures of 5 J/cm^2. Phototoxicity of 4,5-dibromorhodamine 110 n-butyl ester hydrobromide and rhodamine B n-butyl ester hydrochloride were only assessed against the cell line K562. However, we anticipate that their activity will be similar against T cells.

[1] = tested on: normal mouse long term culture of bone marrow and hematopoietic colonies; experiment: Phototoxicity against hematopoietic progenitor cell cultures (long term culture of bone marrow, semi-solid colony assays); assay type: cell-based
From the text: However, as reported for rhodamine 123, the LTC (Long Term Culture) establishment is more sensitive to the dyes but the number of viable committed precursor and stem cells remains unaffected. […] This is in agreement with results obtained previously in other laboratories using rhodamine 123.

Compound | cell viability after photodynamic therapy (K-562 cell line; 10 μg/ml, 0.5 J/cm^2 at 514.5 nm, less than 24 hours after irradiation) | establishment of normal mouse long term culture of bone marrow and formation of hematopoietic colonies in semi-solid assays after photodynamic therapy [1] | cell viability of K562 cells after photodynamic therapy (K-562 cell line; 10 µg/ml, 5 J/cm^2 argon ion laser 514.5 nm, less than 20 hours after irradiation) | effect on cell viability (K-562 cell line; even at exposures of 5 J/cm^2)
Br.CCCCOC(=O)c1ccccc1-c1c2ccc(=N)c(Br)c-2oc2c(Br)c(N)ccc12 [DBBE, 4,5-dibromorhodamine 110 (2-(4,5-dibromo-6-amino-3-imino-3H-xanthen-9-yl)-benzoic acid) n-butyl ester hydrobromide] | completely suppress | minimally impaired | – | –
CCCCOC(=O)c1ccccc1-c1c2ccc(=NCC)cc-2oc2cc(N(CC)CC)ccc12.Cl [RBBE, Rhodamine B n-butyl ester (2-(6-diethyl amino-3-ethyl imino-3H-xanthen-9-yl)-benzoic acid) n-butyl diester hydrochloride] | – | minimally impaired | significantly suppress | –
COC(=O)c1ccccc1-c1c2ccc(=N)cc-2oc2cc(N)ccc12.Cl [Rhodamine 123, Rhodamine 123 (2-(6-amino-3-imino-3H-xanthen-9-yl)benzoic acid methyl ester) hydrochloride, reference compound] | – | minimally impaired | – | no effect
